The results in this text go back to US5891882A, “Benzopyranopyrrole and benzopyranopyridine α-1 adenergic compounds” (priority 1997, dated 1999).

pKi: −log10 of the molar value. Structures can show the parent of a compound that is named as a salt. Where two headings read alike, the source gives them in different places.

Usually pKi stands for −log10 of the Ki, conventionally taken in molar units. A word on the Kb: it is the equilibrium dissociation constant of an antagonist, usually derived from a functional assay. What is called Ki is a dissociation constant, usually derived from enzyme kinetics or from competition with a known ligand.

Assay [1] addresses T1, α-1b adrenoreceptor (hamster) (Mesocricetus auratus, UniProt P18841).
T1 construct: expressed in transfected cells; cDNA from TULCO; membranes
T1 sequence (P18841 1-515): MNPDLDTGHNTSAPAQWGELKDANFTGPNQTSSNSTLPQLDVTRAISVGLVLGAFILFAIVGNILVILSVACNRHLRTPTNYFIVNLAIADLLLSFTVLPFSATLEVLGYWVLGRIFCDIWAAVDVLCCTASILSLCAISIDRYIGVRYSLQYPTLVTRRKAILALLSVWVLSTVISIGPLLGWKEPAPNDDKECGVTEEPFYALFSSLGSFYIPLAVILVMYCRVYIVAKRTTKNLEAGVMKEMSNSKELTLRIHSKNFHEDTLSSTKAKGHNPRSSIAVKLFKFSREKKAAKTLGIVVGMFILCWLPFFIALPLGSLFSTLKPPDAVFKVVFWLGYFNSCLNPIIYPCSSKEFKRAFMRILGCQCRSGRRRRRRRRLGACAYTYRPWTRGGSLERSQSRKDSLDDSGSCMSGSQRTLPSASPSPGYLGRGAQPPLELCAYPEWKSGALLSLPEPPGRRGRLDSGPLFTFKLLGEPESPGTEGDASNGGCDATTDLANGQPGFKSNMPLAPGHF
The experiment in a line: In vitro [3H]-prazosin radioligand binding, cloned α-1b adrenoreceptor expressed in LTK cells. The settings on record: for Ki: cloned hamster α-1b in LTK cells, [3H]prazosin 0.2 nM, read-out: Radioligand Binding (Ki; nM) 1b (Hamster). The source says: The cDNA clones encoding the α-1 adrenoreceptors (α-1a, α-1b, and α-1d) were obtained from TULCO (Triangle Universities Licensing Consortium, Research Triangle Park, N.C.) and inserted into the eukaryotic expression vector SnaB30. In this vector, expression of the adrenoreceptor gene is under the transcriptional control of an SV40 early promoter. Positive drug selection is provided by a neomycin-resistance gene. Mouse fibroblast cells (LTK) were transfected with the α1 expression plasmids and grown in Dulbecco's modified Eagle's medium (DMEM) containing 10% fetal calf serum and […]. Stable G418-resistant parental lines were generated, with successful expression of adrenoreceptor protein monitored using radioligand binding techniques. Stable single cell clones derived from the parental lines were screened in adrenoreceptor binding assays to identify clones having high adrenoreceptor density. Roller bottle cultures of the cloned lines were used to provide cell membranes for subsequent adrenoreceptor binding characterization studies. A cell line containing the SnaB30 vector expressing the human erythropoietin gene served as a negative control.
For adrenoreceptor binding assays, large scale membrane preparations were utilized in which 6 million cells were seeded into small (450 cm^2) Corning tissue culture roller bottles. 200 mL of DMEM containing 10% fetal calf serum and 300 μM G418 were added to each roller bottle. A 95% air/5% CO2 gas mixture (sterile) was injected into each roller bottle prior to sealing. The bottles were then incubated at 37° C. on a roller rack for 5 days. Cells were re-fed with fresh medium after 3 days in culture.
On the fifth day of culture, growth medium was removed from cells grown in roller bottles, and the cells were washed twice with PBS (Sigma, 120 mM NaCl, 2.7 mM KCl, 10 mM Na2 HPO4 --NaH2 PO4, pH=7.4). Cells were detached from the roller bottles by incubating for 15 minutes at 37° C. in a Tris-EDTA solution (10 mM Tris, 100 mM NaCl, 1 mM EDTA, pH=7.4). The cell suspension from each roller bottle was decanted into tared centrifuge tubes and kept on ice. An aliquot of each cell suspension was generally taken for cell counting. Cells were centrifuged at 3000×G for 5 min at 2°-4° C., washed with PBS and recentrifuged. The supernatant was decanted and the pellet weighed to determine the wet weight of cells. Cells were washed a final time in 40 vol 5 mM Tris-HCl, 5 mM EDTA, pH=7.7, and centrifuged at 40,000×G for 10 minutes. Cells were homogenized in 10 mL of 50 mM Tris-HCl, 5 mM EDTA (pH=7.4) and diluted to 40 mL/tube. Homogenates were centrifuged at 40,000×G for 10 minutes. The supernatant was decanted and the pellets rehomogenized in 50 mM Tris-HCl (pH=7.4) and centrifuged as before. The supernatant was decanted and the homogenate resuspended in 6.25 volumes (per gram wet weight) of 50 mM Tris-HCl and aliquots of the pooled homogenates frozen in liquid N2 and stored at -70° C. until the time of assay. Rat submaxillary glands were used for α-1A adrenoreceptors and were prepared essentially as described (Michel, A. D., Loury, D. N. and Whiting, R. L., Brit. J. Pharmacol. 98: 83-889 (1989)).
Receptor binding assays for α-1 adrenoreceptors were performed essentially as described by Greengrass and Bremner (Eur. J. Pharmacol. 55: 323-326 (1979)). […] Radioactivity was determined by standard liquid scintillation techniques. Data were analyzed as previously described (Hancock, A. A., Kyncl, J. J., Martin, Y. C. and DeBernardis, J. F., J Receptor Res. 8: 23-46 (1988)).

Assay [2] has as its target T2, α-1A adrenoreceptor (rat vas deferens) (Rattus norvegicus, UniProt P43140).
T2 construct: from tissue; host or cells: rat vas deferens
T2 sequence (P43140 1-466): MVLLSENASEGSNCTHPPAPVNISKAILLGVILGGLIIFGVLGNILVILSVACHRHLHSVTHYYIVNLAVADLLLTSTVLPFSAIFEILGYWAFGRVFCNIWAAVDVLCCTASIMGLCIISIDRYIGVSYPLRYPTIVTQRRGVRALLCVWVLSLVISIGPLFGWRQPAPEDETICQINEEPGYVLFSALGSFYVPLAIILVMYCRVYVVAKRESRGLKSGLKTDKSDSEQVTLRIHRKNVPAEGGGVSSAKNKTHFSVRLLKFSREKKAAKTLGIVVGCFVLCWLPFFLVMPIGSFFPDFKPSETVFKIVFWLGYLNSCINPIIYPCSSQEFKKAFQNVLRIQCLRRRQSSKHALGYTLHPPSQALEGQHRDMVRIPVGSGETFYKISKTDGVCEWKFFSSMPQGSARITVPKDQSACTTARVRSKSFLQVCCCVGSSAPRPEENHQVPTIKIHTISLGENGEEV
The experiment in a line: Functional antagonism: inhibition of phenylephrine-induced contraction of rat vas deferens. Format: cell-based. The source says:
Functional assays indicative of pharmacologically defined α-1 adrenoreceptors were used to further characterize compounds. Inhibition of phenylephrine (PE)-induced contraction of canine prostate smooth muscle can be correlated with α-1A adrenoreceptor activation. […] For each of these models, agonist dose response curves were repeated against increasing concentrations of test agent to derive a Schild plot [log ([…]) against log (molarity of test agent)] to determine the pA2.

Regarding `COc1cccc2c1[C@@H]1CCN(CCCCn3c(=O)[nH]c4c(sc5cccnc54)c3=O)C[C@H]1CO2` (relative stereo) [Example 88, 3-[4-((±)-trans-10-Methoxy-1,3,4,4a,5,10b-hexahydro-2H-[1]-benzopyrano[3,4-c]pyrido-3-yl)butyl]-pyrido[2',3':4,5]thieno[3,2-d]pyrimidine-2,4(1H,3H)-dione hydrochloride], the pKi in assay [1] was 9.10. Besides, in assay [2], the Kb is 1.82 nM.
Taken in the same sequence, the figures for `COc1cccc2c1[C@@H]1CCN(CCCCn3c(=O)[nH]c4c(sc5ccccc54)c3=O)C[C@H]1CO2` (relative stereo) [Example 87, 3-[4-((±)-trans-10-Methoxy-1,3,4,4a,5,10b-hexahydro-2H-[1]-benzopyrano[3,4-c]pyrido-3-yl)butyl]-[1]-benzthieno[3,2-d]pyrimidine-2,4(1H,3H)-dione hydrochloride] were 8.54 and 2.14 nM.
On to `COc1cc2[nH]c(=O)n(CCN3CC[C@H]4c5c(OC)cccc5OC[C@@H]4C3)c(=O)c2cc1OC` (relative stereo) [Example 91, 3-[2-((±)-trans-10-Methoxy-1,3,4,4a,5,10b-hexahydro-2H-[1]-benzopyrano[3,4-c]pyrido-3-yl)ethyl]-6,7-dimethoxy-quinazoline-2,4(1H,3H)-dione hydrochloride], for which the Ki in assay [1] was found to be 1.46 nM.
Regarding `COc1ccc2c(n1)sc1c(=O)n(CCCCN3C[C@@H]4COc5cccc(OC)c5[C@@H]4C3)c(=O)[nH]c12` [Example 33, hydrochloride], the inhibition constant Ki in assay [1] amounted to 10.5 nM. The “In Vitro Characterization (pA2) Rat Vas” value in assay [2] (rat vas deferens, phenylephrine-induced contraction, Schild plot) is recorded as 9.02.
